The values that follow come from ChEMBL document CHEMBL1136432, “Discovery of potent imidazole and cyanophenyl containing farnesyltransferase inhibitors with improved oral bioavailability” (Bioorg Med Chem Lett, 2003).

In series [1] the target is T1, Protein farnesyltransferase (Bos taurus, UniProt P29702+P49355). Briefly: Inhibition of transfer of [3H]FPP to biotin K-ras peptide (KKSKTKCVIM) catalyzed by bovine FTase. It is filed as protein-complex assay.
The next series has as its system NIH3T3. The series is described as follows: Concentration needed to reduce 50% of farnesylation in NIH3T3 H-ras cell line. It is filed as functional, cell-based. Particulars: Mus musculus.
The nature of a further series: in vivo. The note with it: dog, po, 5 mg/kg.
The nature of series [2]: Oral bioavailability in monkey. The note with it: cercopithecidae, in vivo.
For series [3], the target named is Geranylgeranyl transferase type I (Bos taurus, UniProt P29702+Q5EAD5). The series is described as follows: Inhibition of [3H]FPP transfer to biotin K-ras peptide (KKSKTKCVLL) catalyzed by bovine GGTase-I.
Series [4] deals with T1, Protein farnesyltransferase. Briefly: Inhibition of [3H]FPP transfer to biotin K-ras peptide (KKSKTKCVIM) by bovine FTase. It is filed as protein-complex assay.
Series [5] can be described thus: Pharmacokinetic (PK) property (Cmax) was determined in dog at the single dose of 1 mg/kg. The series is classed as ADME, organism-based, Canis lupus familiaris. The arrangement: dose 1 mg/kg. Particulars: in vivo.
The nature of series [6]: Pharmacokinetic (PK) property (Tmax) was determined in dog at the single dose of 1 mg/kg. The series is classed as ADME, organism-based, Canis lupus familiaris. Also on record: dose 1 mg/kg. Particulars: in vivo.
Series [7] is described as follows: Half life in dog at the single oral dose of 1 mg/kg. The series is classed as ADME, organism-based, Canis lupus familiaris. Also on record: dose 1 mg/kg, route oral. Particulars: in vivo.
Series [8] can be described thus: Pharmacokinetic (PK) property (AUC) was determined in dog at the single oral dose of 1 mg/kg. The series is classed as ADME, organism-based, Canis lupus familiaris. Also on record: dose 1 mg/kg, route oral. The note with it: in vivo.

Description for in vivo: Oral bioavailability in dog (dose 5 mg/kg)

Compound `Cn1cncc1C(OCc1ccc(C#N)cc1-c1cccc2ccccc12)c1ccc(C#N)nc1` (stereo unspecified) displayed an IC50 in series [1] of 1.7 nM. In the series with NIH3T3, this compound came in with an EC50 of 46 nM.

In turn, `Cn1cncc1C(OCc1nc(Cl)c(C#N)cc1-c1cccc(Cl)c1)c1ccc(C#N)cc1` (stereo unspecified) returned a half-maximal effective concentration (EC50) with NIH3T3 of 29 nM. Take `Cn1cncc1C(OCc1ccc(C#N)cc1-c1ccc2c(c1)OCO2)c1ccc(C#N)nc1` (stereo unspecified): in [1], inhibition was half-maximal at 0.84 nM (IC50). In the series on NIH3T3, this compound registered a concentration giving a half-maximal response (EC50) of 3.5 nM. `Cn1cncc1C(OCc1ccc(C#N)c(-c2cccc(Cl)c2)n1)c1ccc(C#N)cc1` (stereo unspecified) yielded an IC50 in series [1] of 12 nM.

Take `Cn1cncc1C(OCc1cnc(C#N)cc1-c1cccc(Cl)c1)c1ccc(C#N)cc1` (stereo unspecified): 1.8 nM corresponded to half-maximal inhibition in series [1] (IC50). The compound further had a concentration giving a half-maximal response (EC50) in the series on NIH3T3 of 17 nM.

For `Cn1cncc1C(OCc1nc(N2CCC(C(N)=O)CC2)c(C#N)cc1-c1cccc(Cl)c1)c1ccc(C#N)cc1` (stereo unspecified), the half-maximal inhibitory concentration (IC50) in [1] came out at 0.73 nM. The compound further came in with a half-maximal effective concentration (EC50) in the series on NIH3T3 of 1.5 nM. Consider `Cn1cncc1C(OCc1ccc(C#N)cc1-c1cc(Cl)cc(Cl)c1)c1ccc(C#N)nc1` (stereo unspecified), for which, in [1], the concentration for half-maximal inhibition (IC50) came to 0.64 nM. Moreover, in the series on NIH3T3, the EC50 came to 3.5 nM.

Compound `Cn1cncc1C(OCc1ccc(C#N)nc1N1CCOCC1)c1ccc(C#N)cc1` (stereo unspecified) registered a 50% inhibitory concentration (IC50) in series [1] of 1.9 nM. The same compound came in with an EC50 with NIH3T3 of 88 nM. `Cn1cncc1C(OCc1ccc(C#N)c(-c2cccc(C#N)c2)n1)c1ccc(C#N)cc1` (stereo unspecified) yielded a concentration for half-maximal inhibition (IC50) in [1] of 68 nM. Consider `CN1CCN(c2nc(COC(c3ccc(C#N)cc3)c3cncn3C)c(-c3cccc(Cl)c3)cc2C#N)CC1` (stereo unspecified), for which the IC50 in [1] was found to be 0.57 nM. In the series on NIH3T3, this compound registered an EC50 of 2 nM. The compound `Cn1cncc1C(OCc1ccc(C#N)nc1-c1cccc(OC(F)(F)F)c1)c1ccc(C#N)cc1` (stereo unspecified) showed a 50% inhibitory concentration (IC50) in [1] of 0.18 nM. This compound displayed an EC50 with NIH3T3 of 2 nM.

The compound `Cn1cncc1C(OCc1ccc(C#N)nc1-c1cccc(Cl)c1)c1ccc(C#N)cc1` (stereo unspecified) came in with a half-inhibitory concentration (IC50) in series [1] of 0.82 nM. In the series with NIH3T3, the EC50 worked out at 1.8 nM.

In series [1], `Cn1cncc1C(OCc1ccc(C#N)cc1)c1ccc(C#N)c(-c2cccc3cccnc23)c1` (stereo unspecified) yielded an IC50 of 2 nM. For the same compound, the figures for the bioavailability (in the series “in vivo”; in series [2]) were 53% and 92%, respectively. In the series with NIH3T3, the EC50 is 3.7 nM. Regarding `Cn1cncc1C(OCc1ccc(C#N)cc1-c1cccc(OC(F)(F)F)c1)c1ccc(C#N)nc1` (stereo unspecified), the IC50 in [1] is 0.4 nM. Further, the EC50 with NIH3T3 stood at 24 nM. For `Cn1cncc1C(OCc1ccc(C#N)cc1-c1cccc(Cl)c1)c1ccc(C#N)nc1` (stereo unspecified), 0.75 nM corresponded to half-maximal inhibition in [1] (IC50). This compound also displayed an EC50 in the series with NIH3T3 of 2.1 nM. In the case of `CN1CCN(c2nc(COC(c3ccc(C#N)cc3)c3cncn3C)ccc2C#N)CC1` (stereo unspecified), the concentration for half-maximal inhibition (IC50) in series [1] is 58 nM. The compound `Cn1cncc1C(OCc1nc(N2CCC(O)CC2)c(C#N)cc1-c1cccc(Cl)c1)c1ccc(C#N)cc1` (stereo unspecified) came in with an IC50 in series [1] of 0.51 nM. Moreover, it took 3.6 nM to reach a half-maximal effect with NIH3T3 (EC50). `Cn1cncc1C(OCc1ccc(C#N)c(-c2ccc3ccccc3c2)n1)c1ccc(C#N)cc1` (stereo unspecified): the half-inhibitory concentration (IC50) in [1] worked out at 8.2 nM.

The compound `Cn1cncc1C(OCc1ccc(C#N)nc1-c1ccc(OC(F)(F)F)cc1)c1ccc(C#N)cc1` (stereo unspecified) gave a 50% inhibitory concentration (IC50) in series [1] of 0.51 nM. The EC50 with NIH3T3 stood at 4 nM. In the same order, the values of `Cn1cncc1C(OCc1ncc(C#N)cc1-c1cccc(Cl)c1)c1ccc(C#N)cc1` (stereo unspecified) are 0.92 nM and 10 nM. In series [1], `CC(=O)N1CCN(c2nc(COC(c3ccc(C#N)cc3)c3cncn3C)c(-c3cccc(Cl)c3)cc2C#N)CC1` (stereo unspecified) displayed an IC50 of 0.98 nM. Also, the EC50 in the series on NIH3T3 is 0.4 nM. Turning to `Cn1cncc1C(OCc1ccc(C#N)nc1-c1cc(Cl)cc(Cl)c1)c1ccc(C#N)cc1` (stereo unspecified), in series [1], the IC50 was 0.45 nM. The compound also registered an EC50 in the series with NIH3T3 of 6 nM. In series [1], `Cn1cncc1C(OCc1ccc(C#N)cc1-c1cc(F)cc(F)c1)c1ccc(C#N)nc1` (stereo unspecified) registered an IC50 of 2 nM. In addition, in the series on NIH3T3, the 50% effective concentration (EC50) stood at 25 nM. Compound `Cn1cncc1C(OCc1ccc(C#N)nc1-c1ccc2ccccc2c1)c1ccc(C#N)cc1` (stereo unspecified) had an IC50 in series [1] of 0.16 nM. The compound further displayed a concentration giving a half-maximal response (EC50) with NIH3T3 of 7.4 nM. For the compound `Cn1cncc1C(OCc1ccc(C#N)nc1N1CCN(C(=O)OC(C)(C)C)CC1)c1ccc(C#N)cc1` (stereo unspecified), half-maximal inhibition in series [1] (IC50) required 44 nM. With `Cn1cncc1C(OCc1ccc(C#N)nc1-c1ccccc1)c1ccc(C#N)cc1` (stereo unspecified), in [1], the IC50 was 3.9 nM. The same compound had a concentration for a half-maximal effect (EC50) in the series on NIH3T3 of 19 nM.

In turn, `Cn1cncc1C(OCc1ccc(C#N)cc1-c1ccc(F)c(Cl)c1)c1ccc(C#N)nc1` (stereo unspecified) returned a concentration for half-maximal inhibition (IC50) in [1] of 1 nM. The response in the series on NIH3T3 was half-maximal at 46 nM (EC50). In the case of `Cn1cncc1C(OCc1ccc(C#N)cc1)c1ccc(C#N)c(-c2cccc3ccccc23)c1` (stereo unspecified), the values for the concentration for half-maximal inhibition (IC50) in [3] and in series [4] were 18 nM and 0.2 nM, respectively. In addition, the EC50 in the series on NIH3T3 was found to be 110 nM. For the compound `Cn1cncc1C(OCc1ccc(C#N)c(-c2ccc(Cl)cc2)n1)c1ccc(C#N)cc1` (stereo unspecified), in series [1], the 50% inhibitory concentration (IC50) worked out at 25 nM.

In the case of `Cn1cncc1C(OCc1nc(N2CCN(C(=O)OC(C)(C)C)CC2)c(C#N)cc1-c1cccc(Cl)c1)c1ccc(C#N)cc1` (stereo unspecified), the 50% effective concentration (EC50) in the series with NIH3T3 was 4.5 nM. `Cn1cncc1C(OCc1ccc(C#N)nc1-c1ccc2c(c1)OC(F)(F)O2)c1ccc(C#N)cc1` (stereo unspecified) returned a Cmax in [5] of 260 ng/mL. Also, the concentration for half-maximal inhibition (IC50) in [1] amounted to 0.18 nM. Further, the time to peak (Tmax) in [6] worked out at 1 h. The half-life in series [7] was 7.6 h. Moreover, the EC50 in the series with NIH3T3 amounted to 1.2 nM. The compound also registered an AUC in series [8] of 2800 ng·h/mL. As for `Cn1cncc1C(OCc1ccc(C#N)nc1-c1cc(F)cc(F)c1)c1ccc(C#N)cc1` (stereo unspecified), in [1], the IC50 came to 0.71 nM. A half-maximal response in the series with NIH3T3 (EC50) required 2.2 nM.

Turning to `COc1cccc(-c2cc(C#N)ccc2COC(c2ccc(C#N)nc2)c2cncn2C)c1` (stereo unspecified), in series [1], half-maximal inhibition (IC50) was put at 0.88 nM. In the series with NIH3T3, this compound had an EC50 of 20 nM. In series [1], `Cn1cncc1C(OCc1nc(N2CCOCC2)c(C#N)cc1-c1cccc(Cl)c1)c1ccc(C#N)cc1` (stereo unspecified) yielded an IC50 of 0.25 nM. In the series with NIH3T3, the concentration for a half-maximal effect (EC50) came to 1.2 nM. Consider `COc1cccc(-c2cc(C#N)ccc2COC(c2ccc(C#N)cc2)c2cncn2C)c1` (stereo unspecified), for which, in series [1], the half-maximal inhibitory concentration (IC50) was found to be 0.62 nM. For the same compound, a half-maximal response with NIH3T3 (EC50) required 1.2 nM. `Cn1cncc1C(OCc1ccc(C#N)cn1)c1ccc(C#N)c(-c2cccc3ccccc23)c1` (stereo unspecified) yielded an IC50 in [1] of 0.43 nM. Further, the midpoint of the response with NIH3T3, the EC50, lay at 6 nM.

The IC50 is the point on the concentration scale where inhibition reaches its midpoint. A word on the EC50: it is the concentration giving half of the maximal effect. The bioavailability is the share of a dose that reaches the circulation, judged against a reference dose that is usually intravenous. Usually Cmax stands for the highest concentration seen after dosing. By Tmax is commonly meant the time at which the peak concentration occurs. For orientation: half-life means how long it takes for the measured level to halve. By AUC is commonly meant concentration integrated over time.
